“Also recorded” adds a separate entry of the source.
Experiments:
[1] = system: BHK cells and chick embryo fibroblasts; conditions: Yamada and Kennedy, 1987; cited from earlier work
[2] = system: trypsin; test: Treatment with trypsin (HPLC monitoring of hydrolysis); type: in vitro ADME; conditions: 0.25% trypsin, 37° C., HPLC at 220 nm, aliquots 5, 30, 60 min
Description: Compound SF-6,5 and the GRGDS peptide (50 μg in 100 μl PBS) were incubated at 37° C. and exposed to 0.25% trypsin (Gibco; 50μl in modified Puck's buffer). Aliquots were taken after 5, 30 and 60 min and monitored by HPLC at 220 nm.

[3] = system: tumor cell-induced metastases; test: Inhibition of tumor cell-induced metastases in C57BL/6 mice; type: in vivo; conditions: i.v. daily, 25μg of SF-6,5 per mouse, after induction of metastasis
[4] = system: CD4^+ T cell adhesion to FN; test: Inhibition of activated CD4+ T cell adhesion to FN; type: cell-based, human
Description: To examine the adhesive properties of the T cells, 1 μg/50 μl/well of either fibronectin (FN) (Sigma), the 120 kD cell attachment fragment of FN (Telios Pharm. Inc. San Diego, CA), or laminin (LN) (Sigma), were added to 96-flat bottom microtiter-wells for 12 h. Unbound proteins were then washed away and remaining binding sites were blocked with 0.1% bovine serum albumin (BSA) added to the wells for 2 h and washed. CD4+T cells were purified from peripheral blood mononuclear leukocytes obtained from healthy human donors. The mononuclear cells were isolated using a Ficoll gradient, washed and incubated in RPMI supplemented with 10% fetal calf serum (FCS) and antibiotics in petri dishes at 37° C. humidified CO2 incubator. After 2 h, the non-adherent cells were isolated and applied on nylon-wool columns (1.5 h). CD4^+ T cells were then negatively selected by exposure of the cells to a cocktail of anti-CD8, CD19, and CD14 monoclonal antibodies (mAb) conjugated to magnetic-beads (Advanced Magnetics, MA). Unbound cells were recovered and their phenotype was examined. Purity of the CD4^+ T cells was always greater than 92% as determined by FACScan.
The purified CD4^+ T cells were radioactively labeled with ^51 [Cr](New England Nuclear) in RPMI +20% FCS for 2 h and washed. The cells were counted and seeded (0.2×10^5 cells) on the precoated microtiter wells in the presence or the absence of the various inhibitors. Coating was made either with FN, the 120 kD cell-attachment fragment of FN or with control adhesive protein laminin (LN). The inhibitors were various surrogates according to the invention, other test molecules or mAb. After 30 min incubation (in […] CO2 -- humidified incubator) the T cells were activated by 10 ng/ml phorbol myristate acetate (PMA) and the percent of T cells attached to the protein substrates was measured. Unbound cells were washed away after 20-30 min, the bound cells were lysed and their radioactivity was measured using radioactive counter. The amount of the radioactivity of the cell lysates represent the matrix-adherent cells and percent binding was calculated in comparison to the total radioactivity added to the wells. Activated T cell adhesion to control wells or to wells coated with BSA was always 2-5%; the level of adhesion of the non-activated T cells was always below 5%. Where indicated, 1/200 diluted mAb anti-CD29 (anti-β1 mAb Serotec, GB), or 1/400 diluted anti-VLA5 (the β1α5 FN-integrin receptor) mAb (Telios Pharm. Inc. San Diego), or 0.2 mM of RGD, GRGDSPK or GRGESP peptides (Sigma) were used. […] The results shown in Tables 1A, 1B and 1C represent data obtained from several experiments that produced essentially similar results.
In a second series of experiments, FN was used in the adhesion assay carried out with the RGD surrogates NS-8, NS-11 and NS-15 in comparison to RGDS peptide.
In a third series of experiments, FN was used in the adhesion assay with the surrogates SF-6,5 and NS-11 and compared to the peptide GRGDSP.

[5] = system: B16-melanoma cells adhesion to FN; test: Inhibition of B16-melanoma cell adhesion to FN; type: cell-based, murine
[6] = molecular target: T1, platelet GPIIb-IIIa receptor (Homo sapiens, UniProt P05106+P08514); test: Inhibition of ADP-induced platelet aggregation (platelet rich plasma); type: cell-based
T1 construct: Platelet concentrates were prepared from human whole blood; endogenous in cells; host or cells: human platelets in platelet rich plasma
T1 sequence (P08514 32-887 limits assumed): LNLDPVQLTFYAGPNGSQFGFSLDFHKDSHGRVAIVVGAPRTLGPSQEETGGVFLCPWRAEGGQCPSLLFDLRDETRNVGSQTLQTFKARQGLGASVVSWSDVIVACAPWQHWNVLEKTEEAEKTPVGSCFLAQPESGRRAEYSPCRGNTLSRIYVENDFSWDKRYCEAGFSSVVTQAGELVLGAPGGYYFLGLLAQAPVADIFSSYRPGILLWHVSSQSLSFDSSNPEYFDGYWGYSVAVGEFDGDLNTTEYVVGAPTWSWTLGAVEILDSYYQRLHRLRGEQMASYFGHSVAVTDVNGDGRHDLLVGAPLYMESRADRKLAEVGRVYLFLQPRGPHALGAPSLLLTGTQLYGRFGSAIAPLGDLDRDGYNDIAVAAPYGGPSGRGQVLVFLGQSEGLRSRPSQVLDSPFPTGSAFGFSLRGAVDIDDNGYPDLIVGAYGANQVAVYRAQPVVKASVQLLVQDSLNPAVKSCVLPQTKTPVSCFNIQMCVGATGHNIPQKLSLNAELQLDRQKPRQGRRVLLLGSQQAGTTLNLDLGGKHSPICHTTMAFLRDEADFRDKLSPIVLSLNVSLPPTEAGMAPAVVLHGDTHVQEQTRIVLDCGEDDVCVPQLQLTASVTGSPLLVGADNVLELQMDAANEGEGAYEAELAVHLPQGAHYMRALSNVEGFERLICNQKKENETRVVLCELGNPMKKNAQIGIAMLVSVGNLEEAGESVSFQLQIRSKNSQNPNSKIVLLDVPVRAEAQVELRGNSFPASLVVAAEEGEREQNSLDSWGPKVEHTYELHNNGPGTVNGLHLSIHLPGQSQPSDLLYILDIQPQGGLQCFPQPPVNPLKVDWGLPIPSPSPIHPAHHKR
T1 sequence (P08514 891-1039 limits assumed): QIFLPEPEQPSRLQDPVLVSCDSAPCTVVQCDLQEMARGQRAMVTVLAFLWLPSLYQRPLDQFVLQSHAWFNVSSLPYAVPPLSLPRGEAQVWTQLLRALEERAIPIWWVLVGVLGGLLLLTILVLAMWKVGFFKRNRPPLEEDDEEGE
T1 sequence (P05106 27-788): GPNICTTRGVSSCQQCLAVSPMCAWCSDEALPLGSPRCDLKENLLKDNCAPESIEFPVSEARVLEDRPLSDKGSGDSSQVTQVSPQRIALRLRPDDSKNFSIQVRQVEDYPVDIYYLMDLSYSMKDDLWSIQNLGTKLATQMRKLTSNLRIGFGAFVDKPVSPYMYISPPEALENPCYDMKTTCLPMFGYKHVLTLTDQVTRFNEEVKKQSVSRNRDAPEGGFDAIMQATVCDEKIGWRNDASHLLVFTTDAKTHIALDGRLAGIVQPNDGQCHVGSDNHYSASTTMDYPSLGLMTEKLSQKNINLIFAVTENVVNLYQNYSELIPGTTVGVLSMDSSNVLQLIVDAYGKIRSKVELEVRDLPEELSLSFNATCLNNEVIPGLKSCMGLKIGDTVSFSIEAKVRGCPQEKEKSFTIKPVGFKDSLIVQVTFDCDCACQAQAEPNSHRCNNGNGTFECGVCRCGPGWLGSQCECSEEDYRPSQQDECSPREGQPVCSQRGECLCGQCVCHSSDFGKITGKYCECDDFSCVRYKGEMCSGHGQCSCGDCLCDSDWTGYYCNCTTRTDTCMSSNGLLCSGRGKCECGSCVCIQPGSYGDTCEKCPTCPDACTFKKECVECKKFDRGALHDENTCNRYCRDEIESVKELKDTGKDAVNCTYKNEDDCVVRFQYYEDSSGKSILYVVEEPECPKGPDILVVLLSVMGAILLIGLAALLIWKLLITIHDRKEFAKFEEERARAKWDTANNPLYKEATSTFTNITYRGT
Description: To investigate the inhibitory role of the RGD analogues on adhesion, the platelet GPIIb-IIIa receptor which mediates platelet aggregation upon activation was used as a model.
Platelet concentrates were prepared from human whole blood in 10% adenine-citrate-dextrose in Fenwall bags (Baxter Travenol, Israel) followed by standard AABB protocol. Platelet rich plasma was prepared by centrifugation (2500 rpm for 5 min). Samples of platelets were counted in a Minos AST Cell Counter (Levoiselle, France). Cell aggregation was induced by […] and monitored at […] in a 4-channel Aggregometer (Bio-Data, Hatboro, Pa.). To evaluate the effect of the various RGD peptides and the peptide analogues, the platelet rich plasma was pre-incubated with the various inhibitors for 10 min at 37° C. with 10μsolutions followed by the induction of aggregation.
To examine the specificity of the inhibitory effect of the RGD-analogues on platelet aggregation, the cells were treated with various peptidic (RGD and GRGDSP) and non-peptidic (SF-6,6, SF-6,5 and AC-15) RGD analogues used at a fixed sub-saturating concentration of 0.5 mM.
An in vitro assay as described in Example 17 was carried out with the compound NS-11 to examine its ability to interfere with platelet aggregation, and compared it to the SF-6,5 surrogate.
Platelet rich plasma (PRP) was prepared from acid/citrate/dextrose anti-coagulated fresh human blood by differential centrifugation. Platelet aggregation was induced by […] and monitored at 695 nm by a 4-channel Aggregometer (Bio-Data, PA). To evaluate the effect of the RGDS peptide and the NS-8, NS-11 and NS-15 analogs, the PRP was preincubated with the inhibitors for 10 minutes at 37° C., prior to the induction of aggregation. […] In fact, 50% inhibition of platelet aggregation was achieved using a 30-fold lower concentration of NS-11 than that of RGDS.

Ser-Asp-Gly-Arg (SDGR; printed: Ser-Asp-Gly-Arg)
Inhibition of cell spreading, in words [1]: inhibit spreading of BHK cells and chick embryo fibroblasts on vitronectin-coated substrates and on fibronectin-coated substrates

GRGDS [reference compound]
Stability to trypsin [2]: completely hydrolized after 5 min

GRGDSP [reference compound]
Inhibition of tumor cell-induced metastases [3]: failed to inhibit metastases
% Adhesion of activated CD4^+ T cell to FN: (% inhibition) ([4]; Conc. 25 μg. ml): 40%
% Adhesion of activated CD4^+ T cell to FN: (% inhibition) ([4]; Conc. 50 μg. ml): 50%
% Adhesion of activated CD4^+ T cell to FN: (% inhibition) ([4]; Conc. 100 μg. ml): 75%
% Adhesion of activated tumor cells to FN: (% inhibition) ([5]; Conc. 25 μg. ml): 30%
% Adhesion of activated tumor cells to FN: (% inhibition) ([5]; Conc. 50 μg. ml): 40%
% Adhesion of activated tumor cells to FN: (% inhibition) ([5]; Conc. 100 μg. ml): 65%
Percent inhibition of aggregation ([6]; 0.1 mM, ADP-induced): 75%

N=C(N)NCCCC(=O)N1CCCC(C(=O)NCCC(=O)O)C1 (stereo not shown) [NS-11]
% Adhesion of activated CD4^+ T cell to FN: (% inhibition) ([4]; Conc. 25 μg. ml): 30%
% Adhesion of activated CD4^+ T cell to FN: (% inhibition) ([4]; Conc. 50 μg. ml): 50%
% Adhesion of activated CD4^+ T cell to FN: (% inhibition) ([4]; Conc. 100 μg. ml): 85%
Inhibition of cell adhesion relative to RGDS, in words ([4]; Table 1B): better inhibitor of cell adhesion than the RGDS peptide
% Inhibition of adhesion ([4]; Table 1B, surrogates 0.2 mM, CD4^+ T cell to FN): 71%
% Adhesion of activated CD4^+ to FN ([4]; Table 1B, surrogates 0.2 mM, none 65): 19%
% Adhesion of activated tumor cells to FN: (% inhibition) ([5]; Conc. 25 μg. ml): 35%
% Adhesion of activated tumor cells to FN: (% inhibition) ([5]; Conc. 50 μg. ml): 45%
% Adhesion of activated tumor cells to FN: (% inhibition) ([5]; Conc. 100 μg. ml): 70%
inhibition at 100 µM ([6]; 0.1 mM, ADP-induced, read-out: Percent inhibition of aggregation): 90%
Effect on platelet aggregation better than that of the RGD-peptide by ([6]; 0.1 mM, same concentration): ~20%
inhibition at 300 µM ([6]; 0.3 mM, ADP-induced, read-out: Percent inhibition of aggregation): 100%
Inhibition of platelet aggregation, comparison in words ([6]; FIG. 5, Example 19): better inhibitor of platelet aggregation than either NS-8 and NS-15; also recorded: found to inhibit platelet aggregation better than the RGD-containing peptide (RGDS)
50% inhibition of platelet aggregation: lower concentration than that of RGDS ([6]; FIG. 5, vs RGDS): 30 fold
Inhibition of platelet aggregation, in words ([6]; Table 3): better inhibitor of platelet aggregation than SF-6,5; also recorded: significantly better inhibitor than the RGD-containing peptide
